Data: patent US20100021885A1, “REAGENT SETS AND GENE SIGNATURES FOR NON-GENOTOXIC HEPATOCARCINOGENICITY” (priority 2006, published 2010)
Where two headings read alike, the source gives them in different places.

Test system: livers from treated male Sprague-Dawley rats
Protocol: Briefly, in vivo short-term repeat dose rat studies were conducted on over 580 test compounds, including marketed and withdrawn drugs, environmental and industrial toxicants, and standard biochemical reagents. Rats (three per group) were dosed daily at either a low or high dose. […] Animals were necropsied on days 0.25, 1, 3, and 5 or 7. Up to 13 tissues (e.g., liver, kidney, heart, bone marrow, blood, spleen, brain, intestine, glandular and nonglandular stomach, lung, muscle, and gonads) were collected for histopathological evaluation and microarray expression profiling on the Amersham CodeLink™ RU1 platform (also referred to herein as “CodeLink Uniset™ Rat 1 Bioarray”). In addition, a clinical pathology panel consisting of 37 clinical chemistry and hematology parameters was generated from blood samples collected on days 3 and 5.
The remaining 21 NGTC chemicals and 26 NC chemicals were reserved for independent validation of the signature. Each chemical was evaluated in a short term repeat dose in vivo study in male Sprague-Dawley rats (n=3/group). The livers from treated and control rats were collected after 1, 3 and 5 days of dosing and RNA was extracted for gene expression profiling. Gene expression changes in treated animals were compared to suitably matched controls and represented as average log10 ratios for each treatment group. Since the development of tumors is a long term multi-step process, the 100 training set chemicals were profiled at the latest time point in order to capture gene expression changes that were likely to be reflective of repeat dose treatment effects that contribute to carcinogenicity and not reflective of an initial stimulus following a single dose that may be transient in nature.
Male Sprague-Dawley (Crl:CD®(SD)(IGS)BR) rats (weight matched, 7 to 8 weeks of age and averaging 200 to 250 g) were purchased from Charles River Laboratories (Portage, Mich.) and housed individually in hanging, stainless steel, wire-bottom cages in a temperature (66-77° F.), light (12-hour dark/light cycle) and humidity (30-70%) controlled room. […] Housing and treatment of the animals were in accordance with regulations outlined in the USDA Animal Welfare Act (9 CFR Parts 1, 2 and 3). Animals were assigned to groups such that mean body weights were within 10% of the mean vehicle control group. Test articles were administered either orally (10 ml of corn oil/kg body weight) or by intra-peritoneal injection (5 ml of saline/kg body weight), as indicated. Animals were dosed once daily starting on day 0, and necropsied 24 hrs after the last dose, as indicated. An equivalent number of time- and vehicle-matched control rats were treated concurrently.
Briefly, liver samples from 3 rats were chosen from each treatment and control group for gene expression analysis on the Codelink Uniset™ Rat 1 Bioarray (GE Healthcare Bio-Sciences Corp., Piscataway, N.J.). A complete list of probes on the array is provided on the Amersham Biosciences web site (www.amershambiosciences.com). Log transformed signal data for all probes were array-wise normalized used Array Qualifier (Novation Biosciences, Palo Alto, Calif.), a non-linear centralization normalization procedure adapted for the CodeLink microarray platform. Log10 ratios for each experimental group are computed as the difference between the average of the logs of the normalized experimental signals and the average of the logs of the normalized control signals for each gene.
where S is the scalar product and b is the bias term. Evaluation of S for a test experiment across the n genes in the signature determines what side of the hyperplane in m dimensional space the test experiment lies, and thus the result of the classification. Experiments with scalar products greater than 0 are considered positive for non-genotoxic hepatocarcinogenicity.

[1] = maximum of days 1, 3, 5, greater than zero = classified non-genotoxic hepatocarcinogen
[2] = male, Sprague-Dawley, rat, in vivo

In the case of `O=C1Nc2ccc(Cl)cc2C(c2ccccc2Cl)=NC1O` (centres unmarked) [LORAZEPAM], the “Max (maximum scalar product observed over the multiple time points)” value [1] is reported as 0.10.

In the case of `O=C(c1ccc(OCCN2CCCCC2)cc1)c1c(-c2ccc(O)cc2)sc2cc(O)ccc12` [RALOXIFENE, reference compound], the “Max (maximum scalar product)” value (female, Sprague-Dawley, rat, in vivo) is reported as −0.66, the “Day 1 (scalar product)” value (female, Sprague-Dawley, rat, in vivo, 1 day) is reported as −0.66 and the “Day 3 (scalar product)” value (female, Sprague-Dawley, rat, in vivo, 3 days) is reported as −1.25. The “Day 5 (scalar product)” value (female, Sprague-Dawley, rat, in vivo, 5 days) was −2.11.

In the case of `Cc1ccnc2c1NC(=O)c1cccnc1N2C1CC1` [NEVIRAPINE], the “Max (maximum scalar product observed over the multiple time points)” value [2] is reported as −0.38.

For `C[C@]12C/C(=C/O)C(=O)C[C@@H]1CC[C@@H]1[C@@H]2CC[C@@]2(C)[C@H]1CC[C@]2(C)O` [OXYMETHOLONE], the “Max (maximum scalar product observed over the multiple time points)” value [1] was −0.36.

`CN(C)CCCN1c2ccccc2CCc2ccc(Cl)cc21` [CLOMIPRAMINE] was tested, and the “Max (maximum scalar product observed over the multiple time points)” value [2] was −1.46.

In the case of `c1ccc2c(c1)Nc1ccccc1S2` [PHENOTHIAZINE], the “Max (maximum scalar product observed over the multiple time points)” value [1] is reported as 0.70.

With `CCOC(=O)n1ccn(C)c1=S` [CARBIMAZOLE] the “Max (maximum scalar product observed over the multiple time points)” value [2] was −0.38.

For `C=C(Cl)Cl` [1,1-dichloroethene, reference compound], the “signature prediction for non-genotoxic hepatocarcinogenicity” value (37 gene signature, maximum scalar product over days 1, 3 and 5, scalar product greater than zero = positive) was “negative” and the “Max (maximum scalar product observed over the multiple time points)” value [1] was −0.80.

For `OCCOCCN1CCN(C2=Nc3ccccc3Sc3ccccc32)CC1` [QUETIAPINE], the “Max (maximum scalar product observed over the multiple time points)” value [2] was −0.42.

For `Clc1ccc2c(c1)C(N1CCNCC1)=Nc1ccccc1O2` [AMOXAPINE], the “Max (maximum scalar product observed over the multiple time points)” value [2] was −1.00.

With `C=C1CC[C@H](O)C/C1=C/C=C1\CCC[C@]2(C)[C@@H]([C@H](C)CCCC(C)C)CC[C@@H]12` [CHOLECALCIFEROL] the “Max (maximum scalar product observed over the multiple time points)” value [1] was −1.38.

`CC(C)(C)CC(C)(C)c1ccc(OCCOCC[N+](C)(C)Cc2ccccc2)cc1` [BENZETHONIUM CHLORIDE] was tested, and the “Day 1 (scalar product)” value (male, rat, in vivo) was −0.13, the “Day 3 (scalar product)” value (male, rat, in vivo) was −1.34 and the “Day 5 (scalar product)” value (male, rat, in vivo) was −1.68. For the same compound, the “Max (maximum scalar product observed over the multiple time points)” value (male, rat, in vivo) was −0.13.

`COc1ccc(C(CN(C)C)C2(O)CCCCC2)cc1` (centres unmarked) [VENLAFAXINE] was tested, and the “Max (maximum scalar product observed over the multiple time points)” value [1] was −0.95.

`CC[C@H]1OC(=O)[C@H](C)[C@@H](O[C@H]2C[C@@](C)(OC)[C@@H](O)[C@H](C)O2)[C@H](C)[C@@H](O[C@@H]2O[C@H](C)C[C@H](N(C)C)[C@H]2O)[C@](C)(O)C[C@@H](C)C(=O)[C@H](C)[C@@H](O)[C@]1(C)O` [ERYTHROMYCIN] was tested, and the “Max (maximum scalar product observed over the multiple time points)” value [2] was −1.18.

With `CC(C)=CCC/C(C)=C/CO` [GERANIOL] the “Max (maximum scalar product observed over the multiple time points)” value [1] was −0.30.

For `Cc1cccc(C)c1NC(=O)C(C)N` (centres unmarked) [TOCAINIDE], the “Max (maximum scalar product observed over the multiple time points)” value [2] was −0.91.

`CN(C)[C@@H]1C(O)=C(C(N)=O)C(=O)[C@@]2(O)C(O)=C3C(=O)c4c(O)cccc4[C@@](C)(O)[C@H]3C[C@@H]12` [TETRACYCLINE] was tested, and the “Day 1 (scalar product)” value (male, rat, in vivo) was −0.40, the “Day 3 (scalar product)” value (male, rat, in vivo) was −1.18 and the “Day 5 (scalar product)” value (male, rat, in vivo) was −1.31. For the same compound, the “Max (maximum scalar product observed over the multiple time points)” value (male, rat, in vivo) was −0.40.

With `CN1C(=O)CN=C(c2ccccc2)c2cc(Cl)ccc21` [DIAZEPAM] the “Day 1 (scalar product)” value (male, rat, in vivo) was −1.40, the “Day 3 (scalar product)” value (male, rat, in vivo) was −0.06 and the “Day 5 (scalar product)” value (male, rat, in vivo) was 0.52. The “Max (maximum scalar product observed over the multiple time points)” value (male, rat, in vivo) was 0.52.

`C[C@]12CC[C@@H]3c4ccc(OC(=O)c5ccccc5)cc4CC[C@H]3[C@@H]1CC[C@@H]2O` [BETA-ESTRADIOL 3-BENZOATE] was tested, and the “Day 1 (scalar product)” value (Female, 37 gene signature, day 1) was 0.81, the “Day 3 (scalar product)” value (Female, 37 gene signature, day 3) was 0.25 and the “Day 5 (scalar product)” value (Female, 37 gene signature, day 5) was 0.03. The “Max (maximum scalar product)” value (Female, maximum of days 1, 3, 5) was 0.81.

For `CC(C)(Oc1ccc(Cl)cc1)C(=O)O` [CLOFIBRIC ACID], the “Max (maximum scalar product observed over the multiple time points)” value [2] was 0.86.

In the case of `CC(C)c1c(C(=O)Nc2ccccc2)c(-c2ccccc2)c(-c2ccc(F)cc2)n1CC[C@@H](O)C[C@@H](O)CC(=O)O` [ATORVASTATIN], the “Max (maximum scalar product observed over the multiple time points)” value [2] is reported as 1.85.

With `CCC1=C[C@@H]2CN(C1)Cc1c([nH]c3ccccc13)[C@@](C(=O)OC)(c1cc3c(cc1OC)N(C)[C@H]1[C@@](O)(C(=O)OC)[C@H](OC(C)=O)[C@]4(CC)C=CCN5CC[C@]31[C@@H]54)C2` [VINORELBINE] the “Max (maximum scalar product observed over the multiple time points)” value [2] was −1.37.
